From US20240166630A1, “INDOLE DERIVATIVES AS SEROTONERGIC AGENTS USEFUL FOR THE TREATMENT OF DISORDERS RELATED THERETO” (Mindset Pharma Inc., priority 2021, published 2024)
Where “and” joins values, the source holds several entries; their conditions need not be identical. Equal values may be shown once. Read-outs that look alike come from different tables or passages of the source.

Tests used:
[1] = Liver microsomes stability with NADPH, mouse
Procedure: The objective of this study was to estimate in vitro metabolic stability of representative compounds of the application in pooled human and male mouse liver microsomes. The concentrations of parent compounds in reaction systems were evaluated by LC-MS/MS for estimating the stability in pooled human and male mouse liver microsomes. The in vitro intrinsic clearances of test compounds were determined as well.
A master solution in the “Incubation Plate” containing phosphate buffer, ultra-pure H2O, MgCl2 solution and liver microsomes was made according to Table 3. The mixture was pre-warmed at 37° C. water bath for 5 minutes.
40 μL of 10 mM NADPH solution was added to each well. The final concentration of NADPH was 1 mM. The negative control samples were prepared by replacing NADPH with 40 μL of ultra-pure H2O. Samples were prepared in duplicate. Negative controls were prepared in singlet.
The reaction was started with the addition of 4 μL of 200 μM test compounds or control compounds to each master solution to get the final concentration of 2 μM. This study was performed in duplicate.
Aliquots of 50 μL were taken from the reaction solution at 0, 15, 30, 45 and 60 minutes. The reaction solutions were stopped by the addition of 4 volumes of cold methanol with IS (100 nM alprazolam, 200 nM imipramine, 200 nM labetalol and 2 μM ketoprofen). Samples were centrifuged at 3,220 g for 40 minutes. Aliquot of 90 μL of the supernatant was mixed with 90 μL of ultra-pure H2O and then was used for LC-MS/MS analysis.
LC/MS analysis was performed for all samples from this study using a Shimadzu liquid chromatograph separation system equipped with degasser DGU-20A5R; solvent delivery unit LC-30AD; system controller SIL-30AC; column oven CTO-30A; CTC Analytics HTC PAL System; Mass spectrometric analysis was performed using an Triple Quad™ 5500 instrument.
All calculations were carried out using Microsoft Excel. Peak area ratios of test compound to internal standard (listed in the below table) were determined from extracted ion chromatograms.
All calculations were carried out using Microsoft Excel. Peak areas were determined from extracted ion chromatograms. The slope value, k, was determined by linear regression of the natural logarithm of the remaining percentage of the parent drug vs. incubation time curve.
The in vitro half-life (in vitro t1/2) was determined from the slope value:
Conversion of the in vitro t1/2 (min) into the in vitro intrinsic clearance (in vitro CLint, in μL/min/mg proteins) was done using the following equation (mean of duplicate determinations): […]

[2] = In vivo pharmacokinetics in male Sprague Dawley rats; parameters: species or system rat; conditions: 0.992 mg/kg s.c.; for AUC(0-t): read-out: AUC0-tlast
From the text: Example 13 (I-B-1): In Vivo Assessment of the Pharmacokinetics in Mice and Rats
5. PK Analysis • i. Analysis software: Phoenix® WinNonlin® 8.2 (Pharsight, Certara, Mountainview, CA) • ii. Analysis methods: non-compartmental analysis, linear up/log down trapezoidal rule • iii. PK parameters: C0, t1/2, AUC0-tlast. AUC0-∞, CL, Vss, MRT, tmax(po), Cmax(po), F, as appropriate

[3] = molecular target: T1, human 5-HT2A (h5-HT2A) receptor (Homo sapiens, UniProt P28223); test: FLIPR assay, human 5-HT2A receptor under agonist mode; type: cell-based
T1 construct: expressed in transfected cells; kept under G418 and hygromycin B selection
Procedure: I. Assessment of the Activated Effect of Compounds of Formula I-B Targeting on Human 5-HT2A (h5-HT2A) Receptor Under Agonist Mode:
1. The cells were cultured in cell culture medium (DMEM containing 10% FBS, 1× penicillin-streptomycin 300 μg/ml G418 and 100 μg/ml hygromycin B) at 37° C., 5% (v/v) CO2.
2. One day before the assays, the cells were detached using TrypLE™ Express and count cells using cell counter.
3. 20000 cells/well were seeded in 30 μl/well culture medium to a 384-well cell plate and incubated the cells overnight at 37° C., 5% (v/v) CO2.
4. On the assay day, 2×dye solution was prepared following the manual of the FLIPR® Calcium 6 Assay Kit: i. The dye was diluted with assay buffer (20 mM HEPES in 1×HBSS, PH7.4); ii. probenecid was added to the final concentration of 5 mM; iii. Vortexed vigorously for 1-2 minutes.
5. Medium was removed from cell plate by flicking the cell plate on towel papers.
7. The cell plate was placed on plate shaker, the plate agitated at 600 rpm for 2 minutes. The plate was incubated at 37° C. for 2 hours followed by additional 15-minute incubation at 25° C.
8. 3×compound was prepared in assay buffer: a. Reference compounds were diluted to required concentration with DMSO. The compounds were added to a 384-well compound plate; b. Serial dilutions were performed; c. 10 mM test compounds were added to the compound plate, 3-fold serial dilutions were performed. […] 20 μl/well assay buffer was added to the compound plate; f.
9. The cell plate, compound plate and tips were placed into FLIPR, 10 μl of 3× compound was transferred to the cell plate per well with FLIPR.
i. The normalized fluorescence reading (RFU) was calculated as shown follow, while Fmax and Fmin stand for maximum and minimum of calcium signal during defined time window: RFU=Fmax−Fmin
ii. The percentage activation was calculated by using following equation: […]
iii. EC50 was calculated by fitting % activation against log of compound concentrations with Hill equation using Xlfit.

human 5-HT2A = human 5-HT2A (Homo sapiens, UniProt P28223); test: Radioligand binding assay on human 5-HT2A receptor ([3H]-ketanserin)
Procedure: i. The assay buffer was prepared following the table below;
iii. Prepared (v/v) DMSO as follows: a. […] The plates were sealed and incubated at 4° C. for 3 hrs;
iv. Preparation of assay plates: a.
vi. The plates were sealed and incubated at 27° C. for 90 min.

Chain of human 5-HT2A (P28223 whole entry): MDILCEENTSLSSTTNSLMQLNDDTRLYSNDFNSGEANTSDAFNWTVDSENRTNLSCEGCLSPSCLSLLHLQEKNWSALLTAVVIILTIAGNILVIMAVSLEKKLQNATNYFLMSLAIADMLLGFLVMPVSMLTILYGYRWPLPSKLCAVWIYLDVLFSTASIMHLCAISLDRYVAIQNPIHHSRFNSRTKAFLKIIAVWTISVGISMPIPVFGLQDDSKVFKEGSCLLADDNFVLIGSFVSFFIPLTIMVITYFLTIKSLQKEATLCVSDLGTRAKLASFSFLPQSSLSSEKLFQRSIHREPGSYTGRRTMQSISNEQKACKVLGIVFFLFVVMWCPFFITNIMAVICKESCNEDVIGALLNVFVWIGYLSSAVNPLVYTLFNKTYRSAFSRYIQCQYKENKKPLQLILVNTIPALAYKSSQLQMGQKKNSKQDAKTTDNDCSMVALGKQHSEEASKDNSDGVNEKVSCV
T1 sequence (P28223 whole entry): as above

Compound: [2H]C([2H])(c1c[nH]c2ccccc12)[C@H]1CCCN1C([2H])([2H])[2H] [I-B-1, (R)-3-((1-(methyl-d3)pyrrolidin-2-yl)methyl-d2)-1H-indole]
- half-life at 2 μM ([1]; male, mouse, microsomes): 1.16 h
- microsomal CLint at 2 μM ([1]; male, mouse, microsomes): 19.9 µL/min/mg
- Remaining Percentage (%) after 60 min Mouse ([1]; mouse liver microsomes, with NADPH, 2 μM): 55.00%
- F ([2]; Mean ± SD): 133 ± 10.1%
- AUC0-tlast ([2]; individual animals): 137 ng·h/mL and 133 ng·h/mL
- AUC(0-inf) ([2]; individual animals): 154 ng·h/mL and 133 ng·h/mL
- Apparent t1/2 ([2]; individual animals): 0.990 h and 26.6^a h and 1.18 h
- Cmax ([2]; individual animals): 140 ng/mL and 137 ng/mL and 64.6 ng/mL
- F ([2]; individual animals): 132% and 144% and 124%
- MRT0-inf ([2]; individual animals): 1.07 h and 9.03 h and 1.40 h
- tmax ([2]; individual animals): 0.0833 h and 1.00 h
- AUC(0-inf) ([2]; male, Sprague Dawley, rat, plasma, sc, 0.992 mg/kg, Mean ± SD, read-out: AUC0-inf): 143 ± 10.8 ng·h/mL
- AUC(0-t) ([2]; male, Sprague Dawley, rat, plasma, sc, 0.992 mg/kg, Mean ± SD): 136 ± 3.91 ng·h/mL
- Cmax ([2]; male, Sprague Dawley, rat, plasma, sc, 0.992 mg/kg, Mean ± SD, read-out: Cmax): 114 ± 42.7 ng/mL
- MRT inf ([2]; male, Sprague Dawley, rat, plasma, sc, 0.992 mg/kg, Mean ± SD, read-out: MRT0-inf): 3.83 ± 4.5 h
- tmax ([2]; male, Sprague Dawley, rat, plasma, sc, 0.992 mg/kg, Mean ± SD, read-out: tmax): 0.25 h
- AUC(0-inf) ([2]; male, Sprague Dawley, rat, plasma, sc, 0.992 mg/kg, individual animals, read-out: AUC0-inf): 141 ng·h/mL
- AUC(0-t) ([2]; male, Sprague Dawley, rat, plasma, sc, 0.992 mg/kg, individual animals): 140 ng·h/mL
- half-life ([2]; male, Sprague Dawley, rat, plasma, sc, 0.992 mg/kg, mean (n = 2), outlier excluded, read-out: Apparent t1/2 (converted)): 1.09 h
- EC50 [3]: 100 to 1000 nM
- IC50 (human 5-HT2A): < 500 nM
